From ChEMBL document CHEMBL1201862, “PubChem BioAssay data set” (2004)
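Growth conditions: 96-well plates. Treatment: test compound, 48 hours, 5 concentrations. Analysis: linear interpolation between bracketing concentrations; unreached endpoints set to highest concentration. Here, GI50 denotes the concentration required for 50% inhibition of growth.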 Activity calls are given as the source filed them. Cut-off read from the data, not from the text of the source: active = GI50 up to about 1.1 µM and inactive = higher.

Tests used:
Test in all cases: growth of human tumour cells (NCI), 48 h
[1] = test system: SF-295
[2] = test system: HCT-15
[3] = test system: TK-10
[4] = test system: NCI-H23
[5] = test system: K562
[6] = test system: SK-OV-3
[7] = test system: ACHN
[8] = test system: NCI/ADR-RES
[9] = test system: HCC 2998
[10] = test system: OVCAR-3
[11] = test system: SNB-19
[12] = test system: OVCAR-4
[13] = test system: MDA-MB-435
[14] = test system: CAKI-1
[15] = test system: MDA-N
[16] = test system: COLO 205
[17] = test system: UACC-257
[18] = test system: A498

Structure (SMILES)	GI50 [1]	GI50 [2] [µM]	GI50 [3]	GI50 [4]	GI50 [5]	GI50 [6]	GI50 [7]	GI50 [8]	GI50 [9]	GI50 [10]	GI50 [11]	GI50 [12]	GI50 [13]	GI50 [14]	GI50 [15]	GI50 [16]	GI50 [17]	GI50 [18]
C[C@H]1O[C@@H](C(C)(C)C)OC(=O)[C@@H]1C(OC(=O)c1ccccc1)c1cccc2ccccc12 (stereo partly drawn)	> 100 µM (inactive)	> 100	> 100 µM (inactive)	> 100 µM (inactive)	> 100 µM (inactive)	> 100 µM (inactive)	> 100 µM (inactive)	56.1 µM (inactive)	> 100 µM (inactive)	> 100 µM (inactive)	> 100 µM (inactive)	> 100 µM (inactive)	> 100 µM (inactive)	> 100 µM (inactive)	> 100 µM (inactive)	> 100 µM (inactive)	> 100 µM (inactive)	–
COC(=O)[C@@H]1[C@H](O)[C@H](C)[C@H](O)[C@H](C)/C=C\C=C(\C)C(=O)Nc2c(C)c(OC(C)=O)c3c(c2O)C(=O)C(C)=C2OCOC(=C23)/C(C)=C/[C@@H](O)[C@H](O)[C@@H](C)[C@H]1OC(C)=O	> 100 µM (inactive)	–	–	> 100 µM (inactive)	52.7 µM (inactive)	–	> 100 µM (inactive)	–	–	–	21.5 µM (inactive)	33.2 µM (inactive)	–	–	22.2 µM (inactive)	–	28.3 µM (inactive)	–
Cc1ccc(S(=O)(=O)NC(=O)NC(Cc2c[nH]c3ccccc23)C(=O)O)cc1 (stereo not drawn)	> 100 µM (inactive)	> 100	> 100 µM (inactive)	> 100 µM (inactive)	> 100 µM (inactive)	> 100 µM (inactive)	–	> 100 µM (inactive)	–	–	> 100 µM (inactive)	> 100 µM (inactive)	–	–	> 100 µM (inactive)	> 100 µM (inactive)	> 100 µM (inactive)	–
Cc1ccnc2nc(-c3ccc4ccccc4c3)cc(O)c12	–	0.43	1.75 µM (inactive)	2.56 µM (inactive)	0.403 µM (active)	1.09 µM (active)	2.96 µM (inactive)	1.3 µM (inactive)	1.65 µM (inactive)	–	3.77 µM (inactive)	1.71 µM (inactive)	–	–	–	0.621 µM (active)	6.75 µM (inactive)	1.49 µM (inactive)
CC1(C)OC(=O)C(C)(C)OC1=O	> 100 µM (inactive)	> 100	> 100 µM (inactive)	> 100 µM (inactive)	> 100 µM (inactive)	> 100 µM (inactive)	> 100 µM (inactive)	> 100 µM (inactive)	–	> 100 µM (inactive)	> 100 µM (inactive)	> 100 µM (inactive)	> 100 µM (inactive)	> 100 µM (inactive)	> 100 µM (inactive)	> 100 µM (inactive)	> 100 µM (inactive)	> 100 µM (inactive)
Cc1cnc2[nH]c(-c3ccccc3)cc(=O)c2c1	0.0545 µM (active)	0.0212	0.151 µM (active)	0.0741 µM (active)	< 0.01 µM (active)	0.0284 µM (active)	0.0608 µM (active)	0.012 µM (active)	0.0372 µM (active)	0.0123 µM (active)	0.0904 µM (active)	1.35 µM (inactive)	< 0.01 µM (active)	< 0.0186 µM (active)	< 0.01 µM (active)	0.0193 µM (active)	< 0.0218 µM (active)	–
O=C(NCCCCN(CCCNC(=O)C(F)(F)F)Cc1ccccc1)C(F)(F)F	> 100 µM (inactive)	> 100	> 100 µM (inactive)	> 100 µM (inactive)	> 100 µM (inactive)	> 100 µM (inactive)	> 100 µM (inactive)	> 100 µM (inactive)	> 100 µM (inactive)	> 100 µM (inactive)	> 100 µM (inactive)	> 100 µM (inactive)	> 100 µM (inactive)	–	–	> 100 µM (inactive)	> 100 µM (inactive)	> 100 µM (inactive)
Cc1cnc2sn(-c3ccc(Oc4ccccc4)cc3)c(=O)c2c1	15.5 µM (inactive)	7.38	17.7 µM (inactive)	25.4 µM (inactive)	–	25.8 µM (inactive)	13.7 µM (inactive)	21.7 µM (inactive)	6.47 µM (inactive)	6.11 µM (inactive)	19.7 µM (inactive)	17.9 µM (inactive)	13.3 µM (inactive)	–	16.6 µM (inactive)	20.5 µM (inactive)	11.9 µM (inactive)	–
Cl/C(=C\C=N\c1ccc(I)cc1)c1ccc2ccccc2c1	19.1 µM (inactive)	12.6	16.4 µM (inactive)	16 µM (inactive)	6.14 µM (inactive)	22.5 µM (inactive)	10.5 µM (inactive)	14.9 µM (inactive)	0.0322 µM (active)	15 µM (inactive)	18.3 µM (inactive)	24.5 µM (inactive)	9.42 µM (inactive)	11.9 µM (inactive)	–	16.3 µM (inactive)	15.4 µM (inactive)	47.6 µM (inactive)
CN(Cc1cc(C(C)(C)C)cc(Br)c1O)Cc1cc(C(C)(C)C)cc(Br)c1O	4.02 µM (inactive)	3.12	2.17 µM (inactive)	3.15 µM (inactive)	3.13 µM (inactive)	9.51 µM (inactive)	2.94 µM (inactive)	3.03 µM (inactive)	–	2.15 µM (inactive)	6.61 µM (inactive)	5.08 µM (inactive)	4.43 µM (inactive)	3.4 µM (inactive)	4.5 µM (inactive)	12.2 µM (inactive)	2.48 µM (inactive)	2.75 µM (inactive)
c1ccc(CCCCNCc2cc(CNCCCCc3ccccc3)cc(CNCCCCc3ccccc3)c2)cc1	1.81 µM (inactive)	0.586	1.82 µM (inactive)	1.28 µM (inactive)	0.272 µM (active)	1.97 µM (inactive)	1.63 µM (inactive)	0.76 µM (active)	0.149 µM (active)	1.47 µM (inactive)	0.714 µM (active)	1.85 µM (inactive)	1.21 µM (inactive)	1.86 µM (inactive)	2.36 µM (inactive)	0.366 µM (active)	0.859 µM (active)	–
OCC1OC(n2cnc3c(Cl)nc(Nc4ccc(Cl)c(Cl)c4)nc32)CC1O (stereo not drawn)	7.98 µM (inactive)	8.63	8.36 µM (inactive)	10.2 µM (inactive)	8.63 µM (inactive)	13.6 µM (inactive)	8.69 µM (inactive)	10.4 µM (inactive)	7.8 µM (inactive)	12.2 µM (inactive)	20.5 µM (inactive)	10.1 µM (inactive)	9.38 µM (inactive)	16.3 µM (inactive)	–	11 µM (inactive)	9.48 µM (inactive)	10.7 µM (inactive)
COc1cc(S(=O)(=O)N/N=C/c2cc(Br)c(O)c(OC)c2)c(OC)cc1NC(C)=O	> 100 µM (inactive)	52.6	77.3 µM (inactive)	> 100 µM (inactive)	41.5 µM (inactive)	> 100 µM (inactive)	78.3 µM (inactive)	> 100 µM (inactive)	–	92 µM (inactive)	> 100 µM (inactive)	69.3 µM (inactive)	80.5 µM (inactive)	91 µM (inactive)	83.6 µM (inactive)	23.4 µM (inactive)	> 100 µM (inactive)	> 100 µM (inactive)
COc1cc2c(c(O)c1OC)C(=O)C(Cc1ccc(O)cc1)CO2 (stereo not drawn)	5.46 µM (inactive)	11.2	> 100 µM (inactive)	29 µM (inactive)	13.1 µM (inactive)	18.4 µM (inactive)	42.5 µM (inactive)	10.5 µM (inactive)	–	9.4 µM (inactive)	20.3 µM (inactive)	44.7 µM (inactive)	2.36 µM (inactive)	23 µM (inactive)	–	73.6 µM (inactive)	54.2 µM (inactive)	–
CC(CC=O)Nc1nn2c(=O)c3ccccc3nc2s1 (stereo not drawn)	> 100 µM (inactive)	> 100	> 100 µM (inactive)	> 100 µM (inactive)	> 100 µM (inactive)	> 100 µM (inactive)	> 100 µM (inactive)	> 100 µM (inactive)	> 100 µM (inactive)	> 100 µM (inactive)	> 100 µM (inactive)	> 100 µM (inactive)	> 100 µM (inactive)	> 100 µM (inactive)	–	> 100 µM (inactive)	> 100 µM (inactive)	> 100 µM (inactive)
[O-][n+]1c2ccccc2[n+]([O-])c2cc(Br)ccc21	20.6 µM (inactive)	13.3	26.1 µM (inactive)	21.5 µM (inactive)	4.63 µM (inactive)	–	4.81 µM (inactive)	16.1 µM (inactive)	16.5 µM (inactive)	2.21 µM (inactive)	33.2 µM (inactive)	18.9 µM (inactive)	18.2 µM (inactive)	5.41 µM (inactive)	–	20.7 µM (inactive)	17.9 µM (inactive)	17.9 µM (inactive)
COC[C@@H](/N=C/c1ccc(OC)cc1)C(C)C	> 100 µM (inactive)	> 100	> 100 µM (inactive)	> 100 µM (inactive)	> 100 µM (inactive)	> 100 µM (inactive)	> 100 µM (inactive)	> 100 µM (inactive)	–	–	–	> 100 µM (inactive)	> 100 µM (inactive)	> 100 µM (inactive)	> 100 µM (inactive)	80.4 µM (inactive)	> 100 µM (inactive)	–
CC1=N[C@@](C)(C2CC3C=CC2C3=O)COC1=O (stereo partly drawn)	> 100 µM (inactive)	–	> 100 µM (inactive)	> 100 µM (inactive)	> 100 µM (inactive)	> 100 µM (inactive)	> 100 µM (inactive)	–	> 100 µM (inactive)	> 100 µM (inactive)	> 100 µM (inactive)	> 100 µM (inactive)	> 100 µM (inactive)	> 100 µM (inactive)	> 100 µM (inactive)	> 100 µM (inactive)	> 100 µM (inactive)	> 100 µM (inactive)
